Tests used:
T. congolense IL3000 WT = experiment: In vitro drug susceptibility assay (resazurin), T. congolense; assay type: cell-based; settings: Trypanosoma congolense, bloodstream forms, read-out: EC50 T. c. IL3000 WT
Experimental: (§1) Organisms and culture media: Only bloodstream trypomastigotes of T. b. brucei were used throughout this study. […] Parasites were cultured in vented flasks at 37 °C and 5 % CO2 atmosphere and they were passaged every 3 days. Bloodstream forms of T. congolense savannah‐type strain IL3000 were cultured in basal MEM medium, supplemented by 10 % fresh goat serum, 14 μL of β‐mercaptoethanol, 800 μL of 200 mM glutamine solution, and 10 mL of penicillin/streptomycin solution per liter of medium (pH 7.3).48 T. congolense were cultured in six‐well plates at 34 °C and 5 % CO2.
(§2) In brief, the assays were performed in 96‐well plates with 2×10^5 cells per well for T. b. brucei or 5×10^5 cells per well for T. congolense, in their respective culture media. First, 200 μL of test compounds’ solutions (400 μM, in T. brucei or T. congolense medium as appropriate) was added to the first well of each 12‐well row, from which doubling dilutions were conducted over one row per test compound. […] Fluorescence was detected using a FLUOstar Optima (BMG Labtech, Durham, NC, USA) at wavelength of 540 nm (excitation), 590 nm (emission). EC50 values were calculated by nonlinear regression using an equation for a sigmoidal dose–response curve with variable slope using Prism 5.0 (GraphPad Software Inc., San Diego, CA, USA).

T. brucei GAPDH = T. brucei GAPDH (Trypanosoma brucei brucei, UniProt P22512); experiment: Inhibition of T. brucei GAPDH; assay type: biochemical; settings: fixed concentration of 10 μM; data not shown; read-out: decrease of GAPDH activity
Description: […]. […] Limitations of solubility prevented us from testing the series at higher concentrations. However, it must be noted that we cannot exclude the possibility of a low‐affinity inhibition of GAPDH contributing to the trypanocidal effect, as compounds may accumulate to relatively high concentrations within the parasite.

[1] = tested on: T. b. brucei 427WT trypomastigotes; experiment: Reactive oxygen species (ROS) assay (DCFH-DH); assay type: cell-based, Trypanosoma brucei brucei; settings: incubation up to 2 h, multiples of EC50
Experimental: Reactive oxygen species (ROS) assay on T. b. brucei: The production of ROS when T. b. brucei 427WT trypomastigotes incubated with different concentration (2.5×EC50; 1.25×EC50; 0.3×EC50) of test compound was assessed using the indicator dye 2,7‐dichlorodihydrofluorescein diacetate (DCFH‐DH; Sigma–Aldrich). This assay was performed in a 96‐well black‐bottomed well plate; 200 μL of each test compound solution, at 5×EC50 in assay buffer pH 7.3, was added to the well in the first column of the plate and doubling dilutions were carried out across the row, after which 3×10^6 cell in 100 μL of assay buffer were added to each well, immediately followed by 2 μL of 1 mM DCFH‐DH, under minimal light conditions. The plates were incubated in a FLUOstar OPTIMA fluorimeter at 37 °C 5 % CO2 and the fluorescence was monitored at 485 nm for the excitation, 520 nm for the emission for 3 h, taking readings of each well every 2 min. Three wells were included in the plate as controls: 1) 3×10^6 cells per well in assay buffer without test compound; 2) 3×10^6 cells per well in assay buffer with 2 μL of 10 mM H2O2; 3) assay buffer without cells and test compound.

[2] = tested on: T. b. brucei 427WT bloodstream trypomastigotes; experiment: Transmission electron microscopy on T. b. brucei; assay type: cell-based, Trypanosoma brucei brucei; settings: 1×EC50; 4 h exposure
Experimental: Transmission electron microscopy assay on T. b. brucei and HFF cells: TEM of bloodstream trypomastigotes (427WT) and of HFF was performed essentially as previously described.52 Briefly, cell cultures were adjusted to 2.5×10^6 cells mL^−1 and incubated in the presence or absence of test compounds at EC50. Cells were fixed overnight at 4 °C in 2.5 % glutaraldehyde and 4 % paraformaldehyde in 0.1 M phosphate buffer (pH 7.4). Samples were washed with 0.1 M phosphate buffer (pH 7.4), post‐fixed in 1 % osmium tetroxide for 1 h on ice, and washed with the phosphate buffer. Cells were next incubated in 0.5 % uranyl acetate solution for 30 min, washed with distilled water and dehydrated in increasing concentrations of acetone (30, 50, 70, 90 and 100 %).

T. b. brucei ISMR1 = experiment: In vitro drug susceptibility assay (resazurin), dyskinetoplastic ISMR1 strain; assay type: cell-based, Trypanosoma brucei brucei; settings: isometamidium-resistant line
Experimental: as §1, §2

HFF cells = experiment: ATP assay on HFF cells; assay type: cell-based, human; settings: 22 at 200 μM, oligomycin 2 μg/mL; 0, 4, 8 h
Experimental: ATP assay on T. b. brucei and HFF cells: Changes in cellular ATP levels due to the exposure of trypanosomes to the test compounds (0.5×EC50) were monitored using the Molecular Probes ATP Determination Kit (A22066, Invitrogen Detection Technologies), based on the luciferin–luciferase bioluminescent enzymatic reaction. Bloodstream trypomastigote cultures of T. brucei s427WT were incubated with and without test compound, and, at each predetermined incubation time, 10^7 cells of each sample were transferred into a microfuge tube and centrifuged at 2000×g for 10 min at 4 °C. The pellet was washed twice with 1 mL of 50 mM Tris⋅HCl (pH 7.4) containing 0.1 mM DTT, and then resuspended in 200 μL of the same buffer. […] ATP levels were quantified using the contents of the kit following the manufacturer's instructions; 90 μL of standard reaction solution was added to each well of a 96‐well plate and the background luminescence was recorded in a FLUOstar OPTIMA fluorimeter; 10 μL of each sample was then added to each well. The plate was incubated at 28 °C for 15 min and the luminescence was measured, including a standard curve with an ATP concentration ranging from 1 nM to 1 μM to allow the calculation of the ATP concentrations in each sample. The ATP content was measured at 0, 0.5, 1, 2, 4, 8 and 12 h of incubation with test sample. […]

T. brucei GAPDH, sequence (P22512 whole entry): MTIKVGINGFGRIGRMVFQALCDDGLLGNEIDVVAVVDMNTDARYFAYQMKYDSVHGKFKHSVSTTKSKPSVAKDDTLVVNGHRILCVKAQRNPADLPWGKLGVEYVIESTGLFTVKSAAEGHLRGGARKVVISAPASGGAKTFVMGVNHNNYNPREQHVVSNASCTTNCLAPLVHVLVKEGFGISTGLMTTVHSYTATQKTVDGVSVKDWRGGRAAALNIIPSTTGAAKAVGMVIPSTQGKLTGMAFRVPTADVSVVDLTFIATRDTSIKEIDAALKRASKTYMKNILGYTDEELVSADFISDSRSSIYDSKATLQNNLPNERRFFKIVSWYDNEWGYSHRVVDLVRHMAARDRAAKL

| SMILES | EC50 (T. congolense IL3000 WT) | inhibition at 10 µM (T. brucei GAPDH) | ROS production [1] | ultrastructure by TEM in trypanosomes [2] | EC50 in ISMR1 relative to 427WT tested in parallel (T. b. brucei ISMR1) | effect on cellular ATP levels of HFF cells (HFF cells) |
| --- | --- | --- | --- | --- | --- | --- |
| COc1cccc2c1C(=O)C=C(Oc1cccc(CCCCCCCCO)c1)C2=O [Compound 20, 2‐(3‐(8‐Hydroxyoctyl)phenoxy)‐5‐methoxynaphthalene‐1,4‐dione] | 18.8 ± 0.2 µM | < 15% | dose‐dependently increased | some mitochondria presented an irregular shape | did not show a significant increase in the EC50 values | – |
| O=C1C(Oc2cccc(CCCCCCCCO)c2)=CC(=O)c2c(O)cccc21 [Compound 22, 5‐Hydroxy‐2‐(3‐(8‐hydroxyoctyl)phenoxy)naphthalene‐1,4‐dione] | 43.4 ± 0.2 µM | < 15% | dose‐dependently increased | mitochondrial damage but no other ultrastructural changes | did not show a significant increase in the EC50 values | only a very minor effect on cellular ATP levels |

Source: paper PMC6686156, “Discovery of Sustainable Drugs for Neglected Tropical Diseases: Cashew Nut Shell Liquid (CNSL)‐Based Hybrids Target Mitochondrial Function and ATP Production in Trypanosoma brucei” (Chemmedchem, 2019)
